15 compounds from ChEMBL document CHEMBL1201862, “PubChem BioAssay data set” (2004) can be followed below.

SMILES strings stand for the structures. Active and inactive are the calls of the source. Bounds are passed on as bounds.

Data set [1] concerns the target Peroxisome proliferator-activated receptor gamma/Nuclear receptor coactivator 3 (Homo sapiens, UniProt P37231). As to the kind of experiment: TR-FRET dose response biochemical High Throughput Screening assay for agonists of the steroid receptor coactivator 3 (SRC-3) recruitment by the peroxisome proliferator-activated receptor gamma (PPAR gamma): non-selective agonists. [Related pubchem assays: 1301 (Confirmation screen.), 1048 (Primary screen.)]. The data set is classed as functional. (In general: Time-resolved FRET reads energy transfer from a long-lived donor to a nearby acceptor.)

For data set [2], the target named is Peroxisome proliferator-activated receptor gamma/Nuclear receptor coactivator 1 (Homo sapiens, UniProt P37231). Briefly: TR-FRET dose response biochemical High Throughput Screening assay for agonists of the steroid receptor coactivator 1 (SRC-1) recruitment by the peroxisome proliferator-activated receptor gamma (PPAR gamma): non-selective agonists. [Related pubchem assays (depositor defined):AID1300, AID1808, AID504735, AID631]. The data set is classed as protein assay.

Data set [3] concerns the target Peroxisome proliferator-activated receptor gamma/Nuclear receptor coactivator 2 (Homo sapiens, UniProt P37231). As to the kind of experiment: TR-FRET dose response biochemical High Throughput Screening assay for agonists of the steroid receptor coactivator 2 (SRC-2) recruitment by the peroxisome proliferator-activated receptor gamma (PPAR gamma): non-selective agonists. [Related pubchem assays: 1297, 1032 ]. The data set is classed as functional.

Data set [4] is described as follows: cytotoxicity toward NIH3T3 fibroblasts, dose response, counter-screen, cell-based, ATP luminescence, mouse fibroblasts (AID 2010).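 Note: cells exposed to compound for about 90 hours before reading.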 In kind it is functional.
In data set [5] the target is T1, Ubiquitin-conjugating enzyme E2 N (Homo sapiens, UniProt P61088).
T1 sequence (P61088 whole entry): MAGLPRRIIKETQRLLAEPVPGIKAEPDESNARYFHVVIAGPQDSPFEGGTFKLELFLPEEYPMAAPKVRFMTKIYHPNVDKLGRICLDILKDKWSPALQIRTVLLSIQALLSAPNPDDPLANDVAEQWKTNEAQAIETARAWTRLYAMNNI
The data set is classed as functional.

Data set [6] in a line: inhibitors of intracellular T. cruzi replication, confirmation, NIH3T3 host cells, beta-gal luminescence (AID 2044).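 Note: intracellular parasites grown in NIH/3T3 mouse fibroblasts as host cells; luminescent beta-galactosidase reporter signal from transgenic T. cruzi replicating inside host cells; inhibitors lower the luminescence signal.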 In kind it is functional, cell-based.
A further data set has as its target T2, Bcl-2-related protein A1 (Mus musculus, UniProt Q07440).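 Note: confirmatory dose–response counterscreen on Bfl-1, used to check hits from a UBC13 polyubiquitin inhibitor campaign.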
T2 sequence (Q07440 whole entry): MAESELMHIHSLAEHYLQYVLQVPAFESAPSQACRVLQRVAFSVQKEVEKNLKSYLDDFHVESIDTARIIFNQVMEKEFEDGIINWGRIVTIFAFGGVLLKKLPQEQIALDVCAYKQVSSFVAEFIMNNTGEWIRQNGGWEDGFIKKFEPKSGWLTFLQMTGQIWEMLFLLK
In kind it is functional.

Data set [7] is described as follows: microbe, parasite or virus in culture. In kind it is functional. As to conditions: Mycobacterium tuberculosis.
For data set [8], the target named is T1, Ubiquitin-conjugating enzyme E2 N. In kind it is functional. The source holds these as a separate data set.
Data set [9] concerns the target T3, High affinity choline transporter 1 (Homo sapiens, UniProt Q9GZV3).
T3 sequence (Q9GZV3 whole entry): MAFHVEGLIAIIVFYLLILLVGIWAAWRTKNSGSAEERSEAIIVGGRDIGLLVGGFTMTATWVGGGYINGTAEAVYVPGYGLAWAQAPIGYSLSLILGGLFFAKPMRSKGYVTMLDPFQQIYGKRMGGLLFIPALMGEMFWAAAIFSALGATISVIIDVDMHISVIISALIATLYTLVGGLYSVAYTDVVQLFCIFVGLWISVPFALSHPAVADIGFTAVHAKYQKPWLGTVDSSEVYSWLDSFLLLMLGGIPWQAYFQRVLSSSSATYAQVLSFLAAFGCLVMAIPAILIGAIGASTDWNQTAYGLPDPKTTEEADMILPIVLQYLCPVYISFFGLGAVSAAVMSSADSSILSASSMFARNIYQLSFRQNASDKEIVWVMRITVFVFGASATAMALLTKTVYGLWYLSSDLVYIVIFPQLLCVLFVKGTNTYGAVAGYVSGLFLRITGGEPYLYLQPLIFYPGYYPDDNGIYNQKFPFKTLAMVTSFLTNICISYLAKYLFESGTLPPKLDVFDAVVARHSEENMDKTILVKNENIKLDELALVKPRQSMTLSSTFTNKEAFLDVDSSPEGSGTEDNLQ
Briefly: CHT inhibitors, dose response, cell-based, 5-point CRC, membrane potential dye (AID 504840). The data set is classed as functional.

Data set [10] concerns the target T3, High affinity choline transporter 1. Briefly: CHT inhibitors, dose response, cell-based, 10-point CRC, membrane potential dye (AID 588401).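 Note: membrane potential dye fluorescence of choline-evoked depolarization via CHT.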 The data set is classed as functional.
Data set [11] has as its target Voltage-gated inwardly rectifying potassium channel KCNH2 (Homo sapiens, UniProt Q12809). As to conditions: Potency.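 Note: confirmatory quantitative high-throughput screen measuring inhibition of hERG channel activity.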
A further data set addresses Cytochrome P450 2C9 (Homo sapiens, UniProt P11712).
In data set [12] the test system is BJ. As to the kind of experiment: cytotoxicity toward BJ-TERT-LT-ST fibroblasts, dose response, cell-based, RAS-independent, luminescence (AID 1935).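 Note: BJ fibroblasts immortalized with TERT plus LT and ST oncogenes.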 The data set is classed as functional. As to conditions: Homo sapiens.
Data set [13] concerns HEK293. Briefly: NOD1 signaling inhibitors, primary screen, cell-based, luminescence, uHTS (AID 1578). The data set is classed as functional. As to conditions: Homo sapiens.
Data set [14] deals with BJ. Briefly: cytotoxicity toward BJ-TERT fibroblasts, dose response, cell-based, RAS-independent, luminescence (AID 1933). To be noted: Homo sapiens. The data set is classed as functional.
The subject of data set [15] is BJ. Briefly: cytotoxicity toward Ras-transformed BJeLR fibroblasts, dose response, cell-based, alamar blue fluorescence, cherrypicked samples (AID 2631).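 Note: confirmatory dose-response assay in RAS-dependent BJ fibroblasts engineered with TERT, LT and ST, with cytotoxicity read by fluorescence.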 The data set is classed as functional. As to conditions: Homo sapiens. For orientation: Alamar Blue is a resazurin reagent that responds to reducing activity.
The test system of data set [16] is HEK293. Briefly: cells. To be noted: Homo sapiens. In kind it is functional, cell-based.
Data set [17] relates to BJ. As to the kind of experiment: cells. In kind it is functional, cell-based. As to conditions: Homo sapiens.
Data set [18] concerns HEK293. As to the kind of experiment: cells. In kind it is functional, cell-based. As to conditions: Homo sapiens. This is another data set of the same source.
Data set [19] can be described thus: cytotoxicity toward DRD oncogenic fibroblasts, dose response, cell-based, non-viral oncogenic, luminescence (AID 1934). As to conditions: Homo sapiens. The data set is classed as functional.
Data set [20] deals with HEK293. Briefly: NOD2 signaling inhibitors in MDP-stimulated cells, cell-based, uHTS, luminescence (AID 2001). In kind it is functional. As to conditions: Homo sapiens.
Data set [21] concerns the target 5-hydroxytryptamine receptor 2A (Mus musculus, UniProt P35363). In kind it is functional, cell-based.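 Note: CHO-K1 cells with tagged receptor and beta-arrestin; agonist potency measured as compound-induced activation of the receptor.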
For a further data set, the target named is Mu-type opioid receptor (Homo sapiens, UniProt P35372). In kind it is functional, cell-based.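 Note: U2OS cells with beta-arrestin recruitment to OPRM1 by beta-gal complementation.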
Sequence of Mu-type opioid receptor (P35372 whole entry): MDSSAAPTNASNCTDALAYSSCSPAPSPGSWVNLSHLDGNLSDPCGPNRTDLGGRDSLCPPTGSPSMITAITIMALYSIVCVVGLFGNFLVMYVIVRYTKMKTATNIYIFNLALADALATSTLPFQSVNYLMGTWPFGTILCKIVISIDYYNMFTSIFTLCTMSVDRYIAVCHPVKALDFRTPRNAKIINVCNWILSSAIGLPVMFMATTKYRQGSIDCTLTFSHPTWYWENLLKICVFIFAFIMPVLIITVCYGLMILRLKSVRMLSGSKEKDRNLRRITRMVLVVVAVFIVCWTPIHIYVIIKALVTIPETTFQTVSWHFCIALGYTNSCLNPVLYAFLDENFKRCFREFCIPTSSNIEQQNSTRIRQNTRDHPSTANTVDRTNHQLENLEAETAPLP
A short description of data set [22]: HEp-2 cell cytotoxicity, dose response, cytotoxicity control for RSV inhibitor project, HTS (AID 2410). In kind it is functional. As to conditions: human respiratory syncytial virus.
Data set [23] addresses Dual specificity tyrosine-phosphorylation-regulated kinase 1A (Rattus norvegicus, UniProt Q63470). The data set is classed as biochemical, Homo sapiens.
The target in data set [24] is T4, Heat shock factor protein 1 (Mus musculus, UniProt P38532).
T4 sequence (P38532 whole entry): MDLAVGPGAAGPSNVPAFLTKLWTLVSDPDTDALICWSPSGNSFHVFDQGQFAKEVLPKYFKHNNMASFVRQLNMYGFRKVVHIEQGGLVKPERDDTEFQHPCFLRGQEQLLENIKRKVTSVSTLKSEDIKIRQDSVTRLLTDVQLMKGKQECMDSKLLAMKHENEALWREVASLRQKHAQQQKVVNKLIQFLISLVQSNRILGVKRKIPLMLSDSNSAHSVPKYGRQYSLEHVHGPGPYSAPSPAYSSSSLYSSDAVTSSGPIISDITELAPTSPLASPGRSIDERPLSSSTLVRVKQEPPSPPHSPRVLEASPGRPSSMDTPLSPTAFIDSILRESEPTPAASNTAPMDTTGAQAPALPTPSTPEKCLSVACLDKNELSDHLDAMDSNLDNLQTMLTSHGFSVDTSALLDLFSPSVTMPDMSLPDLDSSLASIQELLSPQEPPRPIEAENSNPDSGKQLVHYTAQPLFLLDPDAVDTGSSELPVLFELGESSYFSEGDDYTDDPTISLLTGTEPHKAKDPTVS
Briefly: inhibition of MG132-induced HSE-luciferase signal, confirmation, cell-based, NIH3T3, luminescence, dose retest (AID 2382).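 Note: NIH3T3 fibroblasts with HSF1-driven luciferase reporter stressed by proteasome inhibitor MG132; luminescence from HSF1-driven luciferase expression after 8 hours of MG132 stress.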 The data set is classed as functional.

In data set [25] the test system is HEK293. As to the kind of experiment: cytotoxicity in HEK293T NF-kB-Luc cells, SAR follow-up, cytotoxicity control for NF-kB activator project, cell-based, resazurin fluorescence (AID 493251). In kind it is functional. To be noted: Homo sapiens.
The nature of data set [26]: inhibitors of firefly luciferase expression or activity, dose response, H4 neuroglioma cells, luminescence (AID 1990). The data set is classed as functional, cell-based.
A short description of data set [27]: inhibitors of SNCA 5'UTR-driven reporter translation, confirmation, H4 neuroglioma cells, luminescence (AID 1988). In kind it is functional, cell-based.

Sequence of Voltage-gated inwardly rectifying potassium channel KCNH2 (Q12809 whole entry): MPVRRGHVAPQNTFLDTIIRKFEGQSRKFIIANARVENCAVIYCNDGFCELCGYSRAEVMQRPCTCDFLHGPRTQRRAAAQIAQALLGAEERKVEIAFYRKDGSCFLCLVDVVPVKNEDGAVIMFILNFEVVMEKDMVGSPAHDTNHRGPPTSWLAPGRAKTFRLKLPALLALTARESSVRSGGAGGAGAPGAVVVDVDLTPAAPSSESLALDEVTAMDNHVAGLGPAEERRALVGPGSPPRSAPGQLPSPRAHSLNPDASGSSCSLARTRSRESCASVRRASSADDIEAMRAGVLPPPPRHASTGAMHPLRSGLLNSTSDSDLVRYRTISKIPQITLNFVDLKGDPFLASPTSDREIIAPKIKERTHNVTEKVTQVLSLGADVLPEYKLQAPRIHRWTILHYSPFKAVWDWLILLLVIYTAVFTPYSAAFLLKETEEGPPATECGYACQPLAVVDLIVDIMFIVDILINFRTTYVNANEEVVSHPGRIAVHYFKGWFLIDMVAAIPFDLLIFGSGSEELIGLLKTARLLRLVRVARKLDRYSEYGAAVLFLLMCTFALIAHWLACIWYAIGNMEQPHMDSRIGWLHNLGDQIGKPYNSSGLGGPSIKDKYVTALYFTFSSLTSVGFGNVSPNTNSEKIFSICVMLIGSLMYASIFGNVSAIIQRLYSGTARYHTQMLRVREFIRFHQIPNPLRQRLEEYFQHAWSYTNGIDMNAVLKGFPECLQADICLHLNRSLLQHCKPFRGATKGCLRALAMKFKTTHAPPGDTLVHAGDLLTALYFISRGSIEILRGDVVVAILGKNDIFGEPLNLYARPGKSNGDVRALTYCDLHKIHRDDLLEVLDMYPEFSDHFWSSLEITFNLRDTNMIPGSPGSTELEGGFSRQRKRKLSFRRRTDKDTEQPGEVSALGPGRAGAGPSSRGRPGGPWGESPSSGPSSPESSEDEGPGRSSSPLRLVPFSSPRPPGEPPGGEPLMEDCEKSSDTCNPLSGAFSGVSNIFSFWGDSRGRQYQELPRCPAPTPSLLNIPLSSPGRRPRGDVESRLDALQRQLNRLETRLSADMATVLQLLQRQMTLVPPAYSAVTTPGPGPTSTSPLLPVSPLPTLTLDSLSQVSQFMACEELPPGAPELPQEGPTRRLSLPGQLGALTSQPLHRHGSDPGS
Sequence of Cytochrome P450 2C9 (P11712 whole entry): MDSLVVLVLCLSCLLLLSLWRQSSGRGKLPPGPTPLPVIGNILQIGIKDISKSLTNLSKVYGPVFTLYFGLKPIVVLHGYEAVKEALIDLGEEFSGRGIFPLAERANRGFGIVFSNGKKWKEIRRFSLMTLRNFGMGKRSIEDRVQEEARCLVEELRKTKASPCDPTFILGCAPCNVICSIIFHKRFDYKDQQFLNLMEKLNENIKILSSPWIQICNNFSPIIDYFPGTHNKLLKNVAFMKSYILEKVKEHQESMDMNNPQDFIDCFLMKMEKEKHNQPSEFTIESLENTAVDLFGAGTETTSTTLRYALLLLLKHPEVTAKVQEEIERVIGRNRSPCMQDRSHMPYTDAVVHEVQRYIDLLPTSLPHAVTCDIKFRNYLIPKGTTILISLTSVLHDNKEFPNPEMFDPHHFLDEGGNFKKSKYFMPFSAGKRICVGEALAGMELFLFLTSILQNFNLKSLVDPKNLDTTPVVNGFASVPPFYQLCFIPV
Sequence of Peroxisome proliferator-activated receptor gamma/Nuclear receptor coactivator 3 (P37231 whole entry): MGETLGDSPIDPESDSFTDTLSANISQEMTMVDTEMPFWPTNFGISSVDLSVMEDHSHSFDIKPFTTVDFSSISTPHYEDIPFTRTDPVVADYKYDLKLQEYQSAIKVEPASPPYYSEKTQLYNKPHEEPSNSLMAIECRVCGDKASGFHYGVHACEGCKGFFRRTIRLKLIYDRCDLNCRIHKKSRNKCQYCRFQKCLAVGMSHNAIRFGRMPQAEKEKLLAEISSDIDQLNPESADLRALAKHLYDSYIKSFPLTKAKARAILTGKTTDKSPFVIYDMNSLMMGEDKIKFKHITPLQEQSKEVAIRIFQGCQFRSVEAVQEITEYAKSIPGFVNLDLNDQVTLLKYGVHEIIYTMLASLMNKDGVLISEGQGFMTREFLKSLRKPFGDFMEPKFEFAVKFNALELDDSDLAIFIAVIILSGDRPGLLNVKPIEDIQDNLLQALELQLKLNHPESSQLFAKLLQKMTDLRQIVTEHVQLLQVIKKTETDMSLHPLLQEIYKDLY
Sequence of Peroxisome proliferator-activated receptor gamma/Nuclear receptor coactivator 3 (Q9Y6Q9 whole entry, further chain): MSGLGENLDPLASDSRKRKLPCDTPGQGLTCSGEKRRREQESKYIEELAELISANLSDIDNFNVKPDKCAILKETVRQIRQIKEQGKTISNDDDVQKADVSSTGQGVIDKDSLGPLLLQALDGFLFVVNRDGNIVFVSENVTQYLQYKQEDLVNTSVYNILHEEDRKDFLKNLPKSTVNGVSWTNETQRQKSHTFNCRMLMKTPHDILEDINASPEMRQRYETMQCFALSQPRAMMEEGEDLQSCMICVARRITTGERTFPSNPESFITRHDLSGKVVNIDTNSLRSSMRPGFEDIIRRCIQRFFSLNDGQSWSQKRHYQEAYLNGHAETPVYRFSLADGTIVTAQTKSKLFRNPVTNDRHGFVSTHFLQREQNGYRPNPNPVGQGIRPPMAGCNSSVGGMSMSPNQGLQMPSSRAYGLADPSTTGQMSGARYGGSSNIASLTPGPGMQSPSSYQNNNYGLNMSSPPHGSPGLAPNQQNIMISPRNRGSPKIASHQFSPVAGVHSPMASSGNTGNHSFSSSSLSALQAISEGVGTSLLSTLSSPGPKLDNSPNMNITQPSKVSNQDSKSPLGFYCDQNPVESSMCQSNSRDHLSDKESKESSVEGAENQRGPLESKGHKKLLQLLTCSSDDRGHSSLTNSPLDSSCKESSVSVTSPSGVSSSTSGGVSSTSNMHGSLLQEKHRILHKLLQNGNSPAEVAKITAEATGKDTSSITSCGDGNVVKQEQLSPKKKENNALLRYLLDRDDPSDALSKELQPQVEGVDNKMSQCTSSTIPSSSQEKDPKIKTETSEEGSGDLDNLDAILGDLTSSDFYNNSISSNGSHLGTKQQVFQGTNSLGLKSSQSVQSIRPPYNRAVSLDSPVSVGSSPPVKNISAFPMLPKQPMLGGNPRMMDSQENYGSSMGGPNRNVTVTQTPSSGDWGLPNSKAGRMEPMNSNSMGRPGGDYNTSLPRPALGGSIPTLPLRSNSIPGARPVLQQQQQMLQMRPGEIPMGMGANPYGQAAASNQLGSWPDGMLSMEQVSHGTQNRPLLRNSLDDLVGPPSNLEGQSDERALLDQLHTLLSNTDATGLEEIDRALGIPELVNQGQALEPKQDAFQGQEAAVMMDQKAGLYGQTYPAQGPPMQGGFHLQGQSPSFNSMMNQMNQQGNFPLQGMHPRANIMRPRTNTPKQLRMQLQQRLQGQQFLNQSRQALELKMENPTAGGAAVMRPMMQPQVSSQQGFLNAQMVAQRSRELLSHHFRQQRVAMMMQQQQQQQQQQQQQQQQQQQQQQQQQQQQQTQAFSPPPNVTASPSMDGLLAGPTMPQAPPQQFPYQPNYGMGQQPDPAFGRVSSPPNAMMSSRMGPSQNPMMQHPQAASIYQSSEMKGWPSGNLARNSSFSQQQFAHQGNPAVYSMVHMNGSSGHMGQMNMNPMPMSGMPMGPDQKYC
Sequence of 5-hydroxytryptamine receptor 2A (P35363 whole entry): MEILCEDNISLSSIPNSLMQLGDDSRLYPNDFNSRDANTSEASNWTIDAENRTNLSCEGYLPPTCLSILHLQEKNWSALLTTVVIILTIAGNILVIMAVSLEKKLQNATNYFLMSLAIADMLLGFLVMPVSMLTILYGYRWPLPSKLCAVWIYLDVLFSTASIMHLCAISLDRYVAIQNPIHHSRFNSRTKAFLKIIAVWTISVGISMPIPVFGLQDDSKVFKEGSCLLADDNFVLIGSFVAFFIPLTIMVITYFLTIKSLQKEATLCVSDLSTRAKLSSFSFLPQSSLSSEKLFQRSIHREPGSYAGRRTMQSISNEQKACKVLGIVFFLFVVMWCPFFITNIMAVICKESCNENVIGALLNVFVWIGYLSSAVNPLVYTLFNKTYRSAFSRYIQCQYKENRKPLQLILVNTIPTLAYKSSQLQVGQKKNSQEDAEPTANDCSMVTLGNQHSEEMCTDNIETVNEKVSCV

A word on the EC50: it is the concentration at which the effect is half-maximal. On to `CC(=O)c1sc(N2CCOCC2)nc1-c1ccccc1`, for which the results for the 50% effective concentration (EC50) in data set [1], in [2] and in data set [3] were > 79.4 µM (not active), > 26.5 µM (inactive) and > 8.82 µM (not active), respectively.
The term IC50 denotes the midpoint of a concentration-inhibition curve. Regarding `CCCCN(C)CCNC(=O)c1ccc(Cn2c(=S)[nH]c3ccc(Br)cc3c2=O)cc1`, the values for the concentration giving a half-maximal response (EC50) in [4] and in data set [6] were > 60 µM (not active) and 606 nM (active), respectively. For the same compound, the values for the IC50 (in data set [5]; at Bcl-2-related protein A1; in [8]) were > 20 µM (inactive), > 20 µM (inactive) and 19.5 µM (active), respectively. Moreover, the CC50 in data set [7] is 19.1 µM (active).
As for `Cc1ccc[n+](CC(=O)c2ccc(Cl)cc2)c1`, the values for the half-maximal inhibitory concentration (IC50) in data set [9] and in data set [10] were 1.82 µM (active) and 946 nM (active), respectively.
In the case of `CCN1CCN(C(=O)CSc2cc(=O)n(C)c3ccccc23)CC1`, the values for the EC50 in [1], in data set [2] and in data set [3] were > 79.4 µM (not active), > 79.4 µM (inactive) and > 79.4 µM (not active), respectively.
Usually AC50 stands for the midpoint of the concentration-response curve, whichever way the signal moves. Consider `CC1Cc2cc3c(cc2C(c2ccc(N)cc2)=NN1)OCO3` (centres undefined), for which, in [11], the AC50 was 35.5 µM (inconclusive).
For `O=C(O)c1cccc(CN2CCCCC2)c1`, on Cytochrome P450 2C9, the AC50 entry is “inconclusive”.
On to `Cc1ccc(Nc2nc(N)nc(CCl)n2)c(C)c1`, for which the EC50 is 10.4 µM (active) in the data set with BJ [12]; 13.9 µM (active) with HEK293 [13]; < 0.12 µM (active) in the data set with BJ [14]; 4.45 µM (active) in the data set on BJ [15]; 1.05 µM (active) in the data set on BJ [17]; 0.423 µM (active) in data set [19]. Moreover, the IC50 is 12.8 µM (active) with HEK293 [16], > 20 µM (inactive) with HEK293 [18] and 10.5 µM (inactive) with HEK293 [20].
Turning to `CCN(CCCNC(=O)CSc1cc(=O)n(C)c2cc(Cl)ccc12)Cc1ccccc1`, the EC50 in [1] is > 79.4 µM (not active); in data set [2] it was > 79.4 µM (inactive); in [3], > 79.4 µM (not active).
In the case of `Cn1cc(C(F)(F)F)nc1-c1ccc(OCC(O)CNCCOc2ccc(O)c(C(N)=O)c2)cc1` (centres undefined), the EC50 is 95.2 nM (active) in [21] and 92.4 µM (inactive) on Mu-type opioid receptor. In addition, the AC50 in [11] was 25.1 µM (inconclusive).
For `Cc1cccc(C(=O)NC(=S)N2CCN(C)CC2)c1`, the AC50 entry at Cytochrome P450 2C9 is listed as “inconclusive”.
`C[C@@H]1C[C@H]2OC(=O)C3(CO3)[C@H]2[C@H](O)[C@]2(C)C(=O)C3OC3[C@@H]12` (some centres undefined): the EC50 with BJ [14] is 17 µM (active); with BJ [15] it was > 133 µM (inactive); in the data set on BJ [17] it was 14.3 µM (active); in data set [19], 14.2 µM (active). Besides, the CC50 in data set [22] is 15.9 µM (active).
Regarding `O=C1NC(=S)S/C1=C/c1ccc(Oc2cnccn2)cc1`, in data set [23], the AC50 was 2.81 µM (active).
In the case of `CCc1ccc(-c2nc(CSCC(=O)NCc3ccco3)c(C)o2)cc1`, the figures for the 50% effective concentration (EC50) in data set [24], in data set [26] and in data set [27] were 462 nM (active), 14.5 µM (active) and 12.8 µM (active), respectively. Also, the IC50 with HEK293 [25] is > 80 µM (inactive).
For `COc1ccc(/C=C(\C#N)C(N)=O)c(OC)c1`, the AC50 result at Cytochrome P450 2C9 is “inconclusive”.
As to `NC(Cc1cccc(-c2ccccc2CP(=O)(O)O)c1)C(=O)O` (centres undefined), in data set [11], the AC50 is 35.5 µM (inconclusive).
